# Reference: patent US6414004B1 (priority 1998, dated 2002)
# How the values were obtained:
# [1] = test system: HRV-2; test: Rhinovirus cytopathic effect reduction in HeLa-Ohio cells (MTT test); format: cell-based; details: HRV-2, HeLa-Ohio cells
# [2] = test system: HRV-86; test: as above; format: cell-based; details: Enterovirus, HRV86; HRV-86, HeLa-Ohio cells; read-out: Concentration inhibiting by 100% viral replication
# [3] = test system: HRV-70; test: as above; format: cell-based; details: Enterovirus, HRV70; HRV-70, HeLa-Ohio cells; read-out: Concentration inhibiting by 100% viral replication
# [4] = test system: Measles (Edmonston strain); test: Antiviral activity, direct inhibition of plaque number; format: cell-based; details: Measles morbillivirus, read-out: Concentration inhibiting by 100% viral replication
# [5] = test system: Polio 1 (Brunhilde strain); format: cell-based; details: Polio 1, plaque reduction
# [6] = test system: HRV-29; test: Rhinovirus cytopathic effect reduction in HeLa-Ohio cells (MTT test); format: cell-based; details: HRV-29, HeLa-Ohio cells
# [7] = test system: HRV-1B; test: as above; format: cell-based
# [8] = test system: HRV-9; test: as above; format: cell-based; details: HRV-9, HeLa-Ohio cells
# [9] = test system: HEp2 cells; test: Cytotoxicity, HEp2 cell proliferation (microscopy, MTT test); format: cell-based; details: 48-72 h incubation at 37° C.
# Protocol: (§1) The cytotoxicity of each substance was determined by direct observation under microscope, and mitochondrial dehydrogenases activities were assayed according to the MTT test (F. Denizot et al., Immunol. Methods, 1986, 89, 271).
# (§2) The concentration of compound which, after 48-72 h of incubation at 37° C., inhibited by 50% the cell proliferation was defined as cytotoxic dose 50% (CD50).
# [10] = test system: HeLa cells; test: Cytotoxicity, HeLa cell proliferation (microscopy, MTT test); format: cell-based; details: 48-72 h incubation at 37° C.
# Protocol: as §1, §2
# [11] = test system: HRV-89; test: Rhinovirus cytopathic effect reduction in HeLa-Ohio cells (MTT test); format: cell-based; details: HRV-89, HeLa-Ohio cells
# [12] = test system: ECHO 9 (ATCC: VR-133); test: Antiviral activity, direct inhibition of plaque number; format: cell-based; details: ECHO 9, plaque reduction; read-out: Concentration inhibiting by 100% viral replication
# [13] = test system: Coxsackie B1 (ATCC: VR-28); test: as above; format: cell-based; details: Coxsackie B1, plaque reduction; read-out: Concentration inhibiting by 100% viral replication
# [14] = test system: HRV-15; test: Rhinovirus cytopathic effect reduction in HeLa-Ohio cells (MTT test); format: cell-based; details: HRV-15, HeLa-Ohio cells
# [15] = test system: HRV-14; test: Rhinovirus cytopathic effect reduction in HeLa-Ohio cells (MTT test); format: cell-based; details: HRV-14, HeLa-Ohio cells
Compound,Concentration inhibiting by 100% viral replication [1],IC100 [2],IC100 [3],IC100 [4],Concentration inhibiting by 100% viral replication [5],Concentration inhibiting by 100% viral replication [6],Concentration inhibiting by 100% viral replication [7],Concentration inhibiting by 100% viral replication [8],Concentration inhibiting by 50% HEp2 cell proliferation: CD50 [9],Concentration inhibiting by 50% HeLa cell proliferation: CD50 [10],Concentration inhibiting by 100% viral replication [11],IC100 [12],IC100 [13],Concentration inhibiting by 100% viral replication [14],melting point,Concentration inhibiting by 100% viral replication [15]
"CSc1noc(-c2ccc(OCCc3ccccc3)cc2)c1C#N [ON-6, 3-Methylthio-5-[4-(2-phenyl-1-ethoxy)-phenyl]-4-isoxazolecarbonitrile]",4 µM,6 µM,10 µM,1 µM,0.2 µM,2 µM,5 µM,8 µM,> 20 µM,> 20 µM,2 µM,0.2 µM,10 µM,6 µM,,
"CSc1noc(-c2ccc(OCCCc3ccccc3)cc2)c1C#N [ON-7, 3-Methylthio-5-[4-(3-phenyl-1-propoxy)-phenyl]-4-isoxazolecarbonitrile]",,5 µM,5 µM,10 µM,0.4 µM,5 µM,5 µM,,> 25 µM,> 25 µM,5 µM,0.2 µM,0.6 µM,,99 to 100 °C,
"CSc1noc(-c2ccc(OCCOc3ccccc3)cc2)c1C#N [ON-8, 3-Methylthio-5-[4-(2-phenoxy-1-ethoxy)-phenyl]-4-isoxazolecarbonitrile]",,5 µM,5 µM,,10 µM,,5 µM,,> 25 µM,> 25 µM,5 µM,0.2 µM,10 µM,,128 to 131 °C,
"CSc1noc(-c2ccc(OCCCOc3ccccc3)cc2)c1C#N [ON-9, 3-Methylthio-5-[4-(3-phenoxy-1-propoxy)-phenyl]-4-isoxazolecarbonitrile]",,5 µM,5 µM,10 µM,,,10 µM,,20 µM,20 µM,5 µM,0.1 µM,1 µM,,121 to 123 °C,
"CSc1noc(-c2ccc(OCCCCOc3ccccc3)cc2)c1C#N [ON-10, 3-Methylthio-5-[4-(4-phenoxy-1-butoxy)-phenyl]-4-isoxazolecarbonitrile]",,1 µM,1 µM,0.02 µM,,1 µM,2 µM,,10 µM,10 µM,1 µM,1 µM,0.02 µM,,113 to 114 °C,1 µM
"CSc1noc(-c2ccc(OCCOc3ccc([N+](=O)[O-])cc3)cc2)c1C#N [ON-11, 3-Methylthio-5-[4-[2-(4-nitrophenoxy)ethoxy]phenyl]-4-isoxazolecarbonitrile]",,2 µM,8 µM,10 µM,,,,,25 µM,10 µM,,4 µM,10 µM,,170 to 171 °C,
"CSc1noc(-c2ccc(OCCOc3ccc(C)cc3)cc2)c1C#N [ON-12, 3-Methylthio-5-[4-[2-(4-methylphenoxy)ethoxy]phenyl]-4-isoxazolecarbonitrile]",,5 µM,5 µM,10 µM,1 µM,,,,> 25 µM,> 25 µM,5 µM,0.06 µM,10 µM,,139 to 140 °C,
"CCOC(=O)c1ccc(OCCOc2ccc(-c3onc(SC)c3C#N)cc2)cc1 [ON-13, Ethyl-4-[[2-[4-(3-methylthio-4-cyano-5-isoxazolyl)-phenoxy]-ethyl]-oxy]benzoate]",,1 µM,1 µM,0.2 µM,10 µM,,,,25 µM,10 µM,,,0.1 µM,,162 to 164 °C,2 µM
"CSc1noc(-c2ccc(OCCOc3ccc(Br)cc3)cc2)c1C#N [ON-14, 3-Methylthio-5-[4-[2-(4-bromophenoxy)ethoxy]phenyl]-4-isoxazolecarbonitrile]",,2 µM,2 µM,0.2 µM,1 µM,,,,> 25 µM,10 µM,2 µM,0.06 µM,0.06 µM,,156 to 157 °C,2 µM
